How the values were obtained:
[1] = molecular target: tetramer+ CD8+ T cells of patient 476 (their T cell receptors); assay: flow cytometry, tetramer staining of patient PBMC
[2] = molecular target: tetramer+ CD8+ T cells of patient 132 (their T cell receptors); assay: flow cytometry, tetramer staining of patient PBMC
[3] = molecular target: tetramer+ CD8+ T cells of patient 422 (their T cell receptors); assay: flow cytometry, tetramer staining of patient PBMC
[4] = molecular target: tetramer+ CD8+ T cells of patient 517 (their T cell receptors); assay: flow cytometry, tetramer staining of patient PBMC
[5] = molecular target: tetramer+ CD8+ T cells of patient 461 (their T cell receptors); assay: flow cytometry, tetramer staining of patient PBMC
T2 cells [6] = assay: Determination of recognition efficiency (RE): 51Cr-release lysis of peptide-pulsed T2 targets by CTL clones; type: cell-based, human; details: for RE score (negative log10 of the peptide concentration required for 40% specific lysis): peptide-pulsed T2 cells, E:T ratio 10:1; for Mean RE (weighted): target cells pulsed with native peptide
Method: FIGS. 3A-3J. […] All assays were performed in triplicate and each clone was assayed twice. Error bars reflect variation between two separate assays. 3a.-c. CTL clones 476.105 and 132.1 were assayed for lysis of T2 cells pulsed with 10-fold dilutions of a. native or c. heteroclitc peptide at concentrations ranging from 100 fg/ml to 100 ng/ml. b. CTL clones 476.105 and 132.1 were assayed for lysis of Malme-3M melanoma cells. d.-e. […] Endogenous (461 and 132) and vaccine-induced (517, 520, 422 and 476) CTL clones were compared for RE in lysing target cells. f-g. […] Mean RE (weighted) for each response is indicated with horizontal bars. Weighted means were based on all clones, not only those assayed, and were estimated by summing the RE of each analyzed clone multiplied by the number of total clones expressing the same V-beta in each patient.
2. […] The E:T ratio was based upon live T and target cells. For each T cell clone, % cytotoxicity was plotted against peptide concentration. The peptide concentration at which the curve crosses 40% cytotoxicity was defined as the RE of that clone (Marguiles, Nat. Immunol. (2001) 2:669-670.
Similar RE assays were performed for the remaining clones from each patient selected for analysis. In order to compare REs of various CTL lines, each clone was assigned an RE score expressed as the negative log10 value of the peptide concentration required for 40% percent specific lysis at an E:T ratio of 10:1. […] We estimated the composite RE of the overall TAA-specific response (composed of a heterogeneous population of T cells) in vivo by summing the RE of each clone multiplied by its representation in the original mixture (the representation was estimated based on the proportion of TAA-specific cells expressing the same V-beta as the clone).

T2 cells [7] = assay: Micro-cytotoxicity 51Cr-release assay with tetramer+/CD8+ cells sorted from PBMC of patient 422; type: cell-based, human; details: patient 422 G209-2M tetramer+ cells; peptide 1 μg/ml; 4 hours
Source text: Six patients with T cell responses specific for MART-1 or gp100 were selected for analysis. PBMC from each patient were stained with PE-conjugated peptide-MHC tetramers: G209-2M-tet PE or M26-tet PE, and co-stained with anti-CD8 FITC and anti-CD14, -CD19, and -CD4 Cy5PE. The plots shown are gated for CD14-, CD19-, and CD4-cells. Tetramer+/CD8+ cells are boxed. […] Micro-cytotoxicity ^51Cr-release assay with tetramer+/CD8+ cells isolated by FACS from the PBMC from patient 422. Isolated cells were assayed for lysis of T2 cells treated with relevant (G209-2M, G209n) or irrelevant (CMV) peptide, or mel 526 melanoma cells. Sorted cells were combined with 250 target cells at 13:1 E:T ratios for 4 hours and supernatants were assayed for percent specific release of radio-label.
Microcytotoxic assay: Cells were isolated directly from PBMC from patient 422 by FACS as described above. Cells were collected in microfuge tubes containing 1 ml ice cold 90% IMDM, with 10% FBS. Collected cells were washed and resuspended to 83,300 cells/ml in 90% IMDM, with 10% FBS. Targets were prepared as described above and resuspended to 8,300 cells/ml in 90% IMDM, with 10% FBS. […] Percent specific release of ^51Cr was calculated from 40 μl cell-free supernatant.

## HLA-A*0201/G209-2M peptide tetramer-phycoerythrin (from UniProt P61769 21-119) (peptide-MHC)
[1]
  estimated percentage of total CD8+ cells that are also tetramer+/CD8+: 0.31%
[2]
  estimated percentage of total CD8+ cells that are also tetramer+/CD8+: 0.22%
[3]
  estimated percentage of total CD8+ cells that are also tetramer+/CD8+: 2.5%

## HLA-A*0201/M26 peptide tetramer-phycoerythrin (from UniProt P61769 21-119) (peptide-MHC)
[4]
  estimated percentage of total CD8+ cells that are also tetramer+/CD8+: 0.23%
[5]
  estimated percentage of total CD8+ cells that are also tetramer+/CD8+: 0.5%

## IMDQVPSFV (SEQ ID NO:4) [G209-2M, heteroclitic peptide vaccine gp100 209-217 (210M), reference compound]
T2 cells [6]; CTL clone 132.1
  RE score (negative log10 of the peptide concentration required for 40% specific lysis): 11.2
T2 cells [6]; CTL clone 476.105
  RE score (negative log10 of the peptide concentration required for 40% specific lysis): 11.2
T2 cells [7]
  Lysis of peptide-pulsed T2 cells by directly isolated tetramer+ T cells: specifically lysed

## ITAQVPSFV (SEQ ID NO:2) [G209-3A]
T2 cells [6]; any concentrations, data not shown
  Activation of G209-specific target cell lysis by T cell clones: does not activate

## ITDQVPSFV (SEQ ID NO:1) (syArtificial Sequence) [G209n, native G209n peptide; agonist]
T2 cells [6]; CTL clone 132.1
  RE score (negative log10 of the peptide concentration required for 40% specific lysis): 11.1
T2 cells [6]; CTL clone 476.105
  RE score (negative log10 of the peptide concentration required for 40% specific lysis): 8.3
T2 cells [6]; CTL clones of patient 132 (endogenous)
  Mean RE (weighted): 11.2
T2 cells [6]; CTL clones of patient 422 (vaccine-induced)
  Mean RE (weighted): 9.7
T2 cells [6]; CTL clones of patient 476 (vaccine-induced)
  Mean RE (weighted): 9.9
T2 cells [7]
  Lysis of peptide-pulsed T2 cells by directly isolated tetramer+ T cells: specifically lysed

From patent publication US7598223B2, “Methods for producing target cell reactive lymphocytes” (The Board of Trustees of the Leland Stanford Junior …, priority 2004, dated 2009)
